Experimental data from ChEMBL document CHEMBL5143585, “Discovery and characterization of benzyloxy piperidine based dopamine 4 receptor antagonists” (Bioorg Med Chem Lett, 2022).
pIC50, pKi: −log10 of the molar value.

What was measured:
[1] = Protein binding in human plasma assessed as unbound fraction; type: ADME, cell-free
D(3) dopamine receptor [2] = molecular target: T1, D(3) dopamine receptor (Homo sapiens, UniProt P35462); assay: Displacement of [3H]N-methylspiperone from human D3 receptor expressed in HEK293 cell membrane by competitive inhibition based analysis; type: cell membranes
D(4) dopamine receptor = molecular target: T2, D(4) dopamine receptor (Homo sapiens, UniProt P21917); assay: Displacement of [3H]N-methylspiperone from human D4 receptor expressed in HEK293 cell membrane by competitive inhibition based analysis; type: cell membranes
T2 sequence (P21917 whole entry): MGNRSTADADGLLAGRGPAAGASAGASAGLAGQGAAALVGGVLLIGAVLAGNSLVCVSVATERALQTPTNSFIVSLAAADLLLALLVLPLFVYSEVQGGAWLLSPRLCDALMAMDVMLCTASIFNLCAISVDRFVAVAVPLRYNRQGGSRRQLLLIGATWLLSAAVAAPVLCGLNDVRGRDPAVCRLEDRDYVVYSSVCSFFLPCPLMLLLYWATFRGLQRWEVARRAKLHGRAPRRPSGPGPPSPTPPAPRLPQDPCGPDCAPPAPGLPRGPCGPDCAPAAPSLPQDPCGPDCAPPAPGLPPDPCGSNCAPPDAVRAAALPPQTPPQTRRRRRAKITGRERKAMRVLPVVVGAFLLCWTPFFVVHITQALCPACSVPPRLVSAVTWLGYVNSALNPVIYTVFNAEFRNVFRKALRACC

[3] = molecular target: D(2) dopamine receptor (Homo sapiens) (UniProt P14416); assay: Displacement of [3H]N-methylspiperone from human D2 receptor expressed in HEK293 cell membrane at 10 uM by competitive inhibition based analysis; type: cell membranes
D(1A) dopamine receptor [4] = molecular target: T3, D(1A) dopamine receptor (Homo sapiens, UniProt P21728); assay: Displacement of [3H]-SCH23390 from human D1 receptor expressed in HEK293 cell membrane at 10 uM by competitive inhibition based analysis; type: cell membranes
[5] = Protein binding in mouse plasma assessed as unbound fraction; type: ADME, cell-free
D(1B) dopamine receptor = D(1B) dopamine receptor (Homo sapiens, UniProt P21918); assay: Displacement of [3H]-SCH23390 from human D5 receptor expressed in HEK293 cell membrane at 10 uM by competitive inhibition based analysis; type: cell membranes
D(3) dopamine receptor [6] = molecular target: T1, D(3) dopamine receptor; assay: Displacement of [3H]N-methylspiperone from human D3 receptor expressed in HEK293 cell membrane at 10 uM by competitive inhibition based analysis; type: cell membranes
[7] = Half-life in rat at 0.25 mg/kg, iv measured for 24 hrs; type: ADME, organism-based; settings: in vivo
[8] = Plasma concentration in rat at 0.25 mg/kg, iv measured on day 2 at 0.25 hrs post-dose; type: ADME, organism-based; settings: time 2 day
[9] = Ratio of drug level in rat brain to plasma at 0.25 mg/kg, iv measured on day 2 at 0.25 hrs post-dose; type: ADME, organism-based; settings: time 2 day, read-out: BPR
[10] = Drug uptake in rat brain at 0.25 mg/kg, iv measured on day 2 at 0.25 hrs post-dose; type: ADME, organism-based; settings: time 2 day, read-out: Drug uptake
[11] = AUC in rat at 0.25 mg/kg, iv measured for 24 hrs; type: ADME, organism-based; parameters: time 24 hrs, dose 0.25 mg/kg, route iv; settings: in vivo
[12] = Initial plasma concentration in rat at 0.25 mg/kg, iv; type: ADME, organism-based; settings: in vivo, iv, 0.25 mg/kg
[13] = Volume of distribution at steady state in rat at 0.25 mg/kg, iv measured for 24 hrs; type: ADME, organism-based; settings: in vivo
[14] = Stability of the compound in mouse plasma; type: ADME, cell-free
D(1A) dopamine receptor [15] = molecular target: T3, D(1A) dopamine receptor; assay: Displacement of [3H]-SCH23390 from human D1 receptor expressed in HEK293 cell membrane by competitive inhibition based analysis; type: cell membranes

Sequence of D(1B) dopamine receptor (P21918 whole entry): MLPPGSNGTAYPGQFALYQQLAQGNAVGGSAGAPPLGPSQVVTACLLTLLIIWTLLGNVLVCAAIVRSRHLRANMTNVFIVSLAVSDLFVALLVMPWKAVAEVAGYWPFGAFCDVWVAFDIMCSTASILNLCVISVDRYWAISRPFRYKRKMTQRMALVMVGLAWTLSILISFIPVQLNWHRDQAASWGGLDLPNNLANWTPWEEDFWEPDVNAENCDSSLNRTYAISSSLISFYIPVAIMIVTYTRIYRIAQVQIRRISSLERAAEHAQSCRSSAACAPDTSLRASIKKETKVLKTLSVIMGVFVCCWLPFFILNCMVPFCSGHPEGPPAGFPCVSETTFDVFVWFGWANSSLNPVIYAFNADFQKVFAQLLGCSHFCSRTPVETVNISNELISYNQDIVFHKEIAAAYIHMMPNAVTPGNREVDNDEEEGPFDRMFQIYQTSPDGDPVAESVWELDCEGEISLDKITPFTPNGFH
T3 sequence (P21728 whole entry): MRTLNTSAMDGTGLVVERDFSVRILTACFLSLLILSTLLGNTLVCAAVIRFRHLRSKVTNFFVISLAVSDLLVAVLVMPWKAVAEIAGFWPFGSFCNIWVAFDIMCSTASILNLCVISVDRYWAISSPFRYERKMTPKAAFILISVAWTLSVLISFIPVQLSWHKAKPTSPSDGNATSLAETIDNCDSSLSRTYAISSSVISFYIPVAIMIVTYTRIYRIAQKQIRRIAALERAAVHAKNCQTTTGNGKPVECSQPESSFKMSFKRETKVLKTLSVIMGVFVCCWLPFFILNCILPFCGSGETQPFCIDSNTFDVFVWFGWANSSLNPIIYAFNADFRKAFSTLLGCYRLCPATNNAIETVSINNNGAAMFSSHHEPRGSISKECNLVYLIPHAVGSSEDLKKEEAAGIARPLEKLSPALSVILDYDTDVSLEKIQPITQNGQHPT
Sequence of D(2) dopamine receptor (Homo sapiens) (P14416 whole entry): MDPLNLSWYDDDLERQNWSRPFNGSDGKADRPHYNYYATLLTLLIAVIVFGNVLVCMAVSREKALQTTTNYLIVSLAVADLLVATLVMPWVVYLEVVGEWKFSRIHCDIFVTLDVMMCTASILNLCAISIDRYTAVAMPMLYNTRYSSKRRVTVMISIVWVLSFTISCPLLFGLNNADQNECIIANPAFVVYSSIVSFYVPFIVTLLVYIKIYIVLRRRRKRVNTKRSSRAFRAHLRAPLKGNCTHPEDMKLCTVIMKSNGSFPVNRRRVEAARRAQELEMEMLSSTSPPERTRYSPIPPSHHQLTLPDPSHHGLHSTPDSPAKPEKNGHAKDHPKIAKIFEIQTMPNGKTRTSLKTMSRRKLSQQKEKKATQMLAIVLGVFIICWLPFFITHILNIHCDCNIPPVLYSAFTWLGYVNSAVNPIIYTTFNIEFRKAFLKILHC
T1 sequence (P35462 whole entry): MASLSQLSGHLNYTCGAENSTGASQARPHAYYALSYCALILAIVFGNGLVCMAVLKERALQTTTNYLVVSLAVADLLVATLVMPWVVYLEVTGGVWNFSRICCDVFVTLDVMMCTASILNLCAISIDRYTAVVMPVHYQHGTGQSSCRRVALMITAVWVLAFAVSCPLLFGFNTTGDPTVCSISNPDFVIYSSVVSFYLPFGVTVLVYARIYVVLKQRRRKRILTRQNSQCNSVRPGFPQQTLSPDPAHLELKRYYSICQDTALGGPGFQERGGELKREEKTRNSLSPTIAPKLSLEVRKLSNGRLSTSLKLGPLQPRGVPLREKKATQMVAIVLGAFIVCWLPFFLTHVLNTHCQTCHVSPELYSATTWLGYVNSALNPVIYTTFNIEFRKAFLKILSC

Row | SMILES | Fu [1] | pKi (D(3) dopamine receptor [2]) | pIC50 (D(4) dopamine receptor) | pKi (D(4) dopamine receptor) | inhibition [3] | inhibition (D(1A) dopamine receptor [4]) | Fu [5] | inhibition (D(1B) dopamine receptor) | inhibition (D(3) dopamine receptor [6]; filed as antagonist) | t1/2 [7] | concentration at 48 h [8] | Kp at 48 h [9] | concentration at 48 h [10] | AUC [11] | C0 [12] | Vdss [13] | inhibition (D(3) dopamine receptor [6]) | Stability [14] | pKi (D(1A) dopamine receptor [15]) | inhibition (D(1A) dopamine receptor [4]; filed as antagonist)
1 | Cn1ncc2cc(CN3CCC(OCc4cccc(C(F)(F)F)c4)CC3)ccc21 | 1% | 6.03 | 6.70 | 6.70 | < 50% | < 50% | 5.7% | < 50% | 92% |  |  |  |  |  |  |  |  |  |  | 
2 | Fc1cc(COC2CCN(Cc3ccc4[nH]cnc4c3)CC2)ccc1Cl | 7.7% |  | 5.82 | 5.82 | < 50% | < 50% | 17.1% | < 50% |  | 1.1 h | 14.1 ng/mL | 9.9 | 139 ng/g | 79.9 ng·h/mL | 23.5 ng/mL | 13.6 L/kg | < 50% |  |  | 
3 | Fc1ccc(COC2CCN(Cc3ccc4[nH]cnc4c3)CC2)cc1F | 22.9% | 5.39 | 5.37 | 5.37 | < 50% | < 50% | 40.1% | < 50% | 57% | 1.2 h | 7 ng/mL | 16.1 | 112 ng/g | 65.6 ng·h/mL |  | 19.2 L/kg |  |  |  | 
4 | FC(F)(F)c1cccc(COC2CCN(Cc3ccc4[nH]cnc4c3)CC2)c1 | 2.5% | 6.02 | 5.74 | 5.74 | < 50% | < 50% | 16.1% | < 50% | 83% |  |  |  |  |  |  |  |  |  |  | 
5 | Cc1nc(CN2CCC(OCc3cccc(C(F)(F)F)c3)CC2)c2ccccn12 | 5.2% | 6.05 | 6.52 | 6.51 | < 50% | < 50% | 3.6% | < 50% |  |  |  |  |  |  |  |  | < 50% |  |  | 
6 | Cc1c(Cl)cccc1NC(=O)CN1CCC(OCc2cccc(C(F)(F)F)c2)CC1 |  | 5.67 | 5.94 | 5.94 | < 50% | < 50% |  | < 50% | 84% |  |  |  |  |  |  |  |  |  |  | 
7 | Cn1cnc2cc(CN3CCC(OCc4cccc(C(F)(F)F)c4)CC3)ccc21 | 1% |  | 6.19 | 6.19 |  |  | 5.7% |  |  | 1.1 h | 30.1 ng/mL | 7.2 | 214 ng/g | 149 ng·h/mL | 60.2 ng/mL | 6.3 L/kg |  |  |  | 
8 | Cc1cc(NC(=O)CN2CCC(OCc3ccc(F)c(F)c3)CC2)ccc1F | 0.5% |  | 6.92 | 6.92 | < 50% | < 50% |  | < 50% |  |  |  |  |  |  |  |  | < 50% | Unstable |  | 
9 | FC(F)(F)c1cccc(COC2CCN(Cc3cc4ccc(Cl)cc4[nH]3)CC2)c1 | 0.1% |  | 6.68 | 6.67 | < 50% |  | 0.1% | < 50% |  |  |  |  |  |  |  |  | < 50% |  | 5.92 | 55%
10 | Cn1ncc2cc(CN3CCC(OCc4ccc(F)c(F)c4)CC3)ccc21 | 3.6% |  | 6.56 | 6.56 | < 50% | < 50% | 16.6% | < 50% |  | 1.4 h | 30.6 ng/mL | 11.6 | 355 ng/g | 112 ng·h/mL | 32.5 ng/mL | 12.9 L/kg | < 50% |  |  | 
